How the values were obtained:
[1] = test system: Philadelphia positive acute lymphoblastic leukemia (Ph+ ALL) cells; experiment: Colony growth of Philadelphia positive ALL cells in methylcellulose culture; type: cell-based, human
Experimental: (§1) Ph+ ALL cells were plated in 1 ml volumes, in the absence of exogenous growth factors, into 35 mm petri dishes (Nunc, Gibco) containing alpha MEM (Gibco) plus 10% FCS (Cansera Rexdale, ON.) in 0.9% (vol/vol) methylcellulose (Fluka, Switzerland) with the indicated concentrations of CR4. Cultures were set at 37° C., 5% CO2 in a humidified atmosphere. Colonies consisting of more than 20 cells were counted at 12 days or earlier using an inverted microscope.
as §1, with “ALL” for “Ph+ ALL”, “20%” for “10%”, “and” for “with”, “compound” for “CR4.”, “atmosphere” for “atmosphere.”
as §1, with “ALL” for “Ph+ ALL”, “20%” for “10%”, “ON)” for “ON.)”, “0.90%” for “0.9%”, “and” for “with”, “compound.” for “CR4.”
as §1, with “ALL” for “Ph+ ALL”, “20%” for “10%”, “and” for “with”, “CR24.” for “CR4.”, “9” for “12”
as §1, with “ALL” for “Ph+ ALL”, “20%” for “10%”, “and” for “with”, “CR19.” for “CR4.”, “9” for “12”

[2] = test system: normal bone marrow cells; experiment: In vitro purging of normal bone marrow, then colony assay; type: cell-based
Experimental: Heparinized bone marrow cells were layered over Percoll (1.077 gm/ml) (Pharmacia Fine Chemical, Piscataway N.J.) and centrifuged at 400 g at 4° C. for 10 minutes to remove neutrophils and RBCs.
For the purging process, the cells were resuspended at 1×10^6/ml in complete medium with or without 50 μM CR4. The cells were incubated with the CR4 for two and a half hours at 37° C., 5% CO2. At the end of this period the cells were thoroughly washed in medium to remove CR4 and then cultured at 2×10^5 cells/ml in IMDM (OCl, Toronto) containing 0.9% (vol/vol) methylcellulose supplemented with 30% FCS (Cansera Rexdale, ON.) or normal human plasma, a cocktail of cytokines containing G-CSF (10 ng/ml, Amgen), IL-3 (40 U/ml, Immunex), MGF (50 ng/ml, Immunex), Etryhropoietin (2 u/ml, Epprex) or TPO (10 ng/ml, Amgen) and 5×10^−5M b-2-mercaptoethanol. The culture mixture was plated in 1 ml volumes into 35 mm petri dishes and incubated at 37° C., 5% CO2 in a humidified atmosphere. All cultures were evaluated at 14 days for the number of BFU-E colonies (defined as aggregates of more than 500 hemaglobinized cells or, 3 or more erythroid subcolonies), CFU-C colonies (defined as granulocyte or monocyte-macrophage cells or both) and CFU-GEMM colonies (a mixed population comprising of all elements).
For the purging process, the cells were resuspended at 1×10^6/ml in complete medium with or without 50 μM CR11. The cells were incubated with the tryrphostin for seven hours at 37° C., 5% CO2. At the end of this period the cells were thoroughly washed in medium to remove CR11 and then cultured at 2×10^5 cells/ml in IMDM (OCl, Toronto) containing 0.9% (vol/vol) methylcellulose supplemented with 30% FCS (Cansera Rexdate, ON.) or normal human plasma, a cocktail of cytokines containing G-CSF (10 ng/ml, Amgen), IL-3 (40 U/ml, Immunex), MGF (50 ng/ml, Immunex), Erythropoietin (2 u/ml, Epprex) or TPO (10 ng/ml, Amgen) and 5×10^−5M β-2-mercaptoethanol. The culture mixture was plated in 1 ml volumes into 35 mm petri dishes and incubated at 37° C., 5% CO2 in a humidified atmosphere. All cultures were evaluated at 14 days for the number of BFU-E colonies (defined as aggregates of more than 500 hemoglobinized cells or, 3 or more erythroid subcolonies), CFU-C colonies (defined as granulocyte or monocyte-macrophage cells or both) and CFU-GEMM colonies (a mixed population comprising of all elements).

[3] = test system: Ly-MN lymphoma cells; experiment: Colony growth of Ly-MN lymphoma cells in methylcellulose culture; type: cell-based; details: colonies at 5 days (FIG. 5)
Experimental: as §1, with “Ly-MN” for “Ph+ ALL”, “IMDM (OCl, Toronto)” for “alpha MEM (Gibco)”, “20% human cord blood plasma” for “10% FCS (Cansera Rexdale, ON.)”, “and” for “with”, “5” for “12”

[4] = test system: OCl-AML-3 acute myeloid leukemia cells; experiment: Colony growth of AML-3 cells in methylcellulose culture; type: cell-based; details: 300-600 nM; colonies at 5-6 days (FIG. 4)
Experimental: OCl-AML-3 cells were plated in 35 mm petri dishes (Nunc, Gibco) in 1 ml volumes at a density of 3.3×10^3 cells/ml, in the absence of exogenous growth factors, containing alpha MEM plus 20% FCS (Cansera, Rexdale Ont.), and 0.9% (vol/vol) methylcellulose (Fluka, Switzerland) and the indicated concentrations of CR4. Cell cultures were incubated in a humidified atmosphere at 37° C. with 5% CO2. Colonies containing more than 20 cells were scored, using an inverted microscope, at 5-6 days.

[5] = two and a half hours exposure to 50 μM (FIG. 14)

N#C/C(=C\C=C\c1ccc(O)c(O)c1)C(=O)NCc1ccccc1 [CR4, (E,E)-2-(benzylaminocarbonyl)-3-(3,4-dihydroxystyryl)acrylonitrile]
wipeout of bcr-abl transformed Philadelphia positive cells ([1]; concentrations as low as 40 nM): > 90% | inhibition of Ph+ ALL cell proliferation and survival ([1]; low nanomolar doses (35-100), colonies at 12 days (FIG. 2)): significant inhibition | normal bone marrow growth and differentiation ([2]; identical doses and times: 25-50 μM, 2.5 to 5 hour exposure): unaffected | BFU-E colonies [2, 5]: slight drop | CFU-C colony numbers [2, 5]: increased significantly | inhibition of colony formation ([2]; two and a half hours exposure to 50 μM, colonies at 14 days (FIG. 14)): did not result in significant inhibition | inhibition of cell proliferation and survival ([3]; by 2.5 μM): inhibition | inhibition of cell proliferation and survival ([3]; nanomolar doses): significantly inhibited | inhibition of AML-3 cell proliferation and survival [4]: complete inhibition

Reference: patent publication US6800659B2, “Compounds for modulating cell proliferation” (HSC Research and Development Limited Partnership, priority 2000, dated 2004)
